For data set [1] the following is noted: aqueous solutions, pH 6; cited from earlier work.
Data set [2] has as its system P. fluorescens SBW25 expressing an ilux operon under control of the saxA promoter. Format: cell-based, Pseudomonas fluorescens SBW25. To be noted: for responsiveness of the biosensor to the compound: FIG. 4. As to the method: (§1) For the basic microplate assay, the reporter biosensor was cultivated overnight in LB media with 50 μg/mL carbenicillin and 15 μg/mL gentamicin. The 200 μL assay was performed in opaque 96-well microtiter plates by adding ITC sample to the reporter cells at a final concentration of 0.05 OD600 in LB medium. All assay plates included cell-only controls (no ITC sample). Luminescence was measured in either a microplate spectrophotometer (Biotek Synergy HT) or a designated luminometer (Molecular Devices Spectramax L) for a 20-hour period in 15-minute intervals with ˜500 RPM shaking. Data were collected using auto-scaled gain or photon counting to increase signal detection. Modifications to the assay for the luxCDABE-based biosensor included a lower bacterial OD600 of 0.005, incubation at 31° C., and measurement every 30 min.
To increase the luminescent signal, the luxCDABE operon of the pHT #3 plasmid was replaced with the enhanced ilux operon that has an additional open reading frame encoding flavin mononucleotide (FMN) reductase and other optimizations (Gregor et al, Proc. Natl. Acad. Sci., (2018) 115(3): 962-967). All other components remained the same as the precursor, and this plasmid was assembled using the Gibson Assembly method (Gibson et al, Nature Meth., (2009) 6(5):343-347). The resulting plasmid, named pHT #9, was integrated into the P. fluorescens SBW25 genome in the same manner as pHT #3.
Plant extracts were prepared from seeds germinated in small petri dishes containing 0.5×Murashige and Skoog Medium and 0.3% agar for up to 4-days under artificial lighting. Germinated seeds and/or seedlings were transferred to 2-mL screwcap tubes containing steel beads. Water was added at a 1:2 ratio of plant weight to water volume. The tissue was macerated and pelleted by centrifugation. Supernatants were diluted prior to use in the basic microplate protocol.
To analyze the ability of the biosensor to detect ITCs in plant residues, seed meal was incubated on a rotating shaker at room temperature for 24 hrs with a 1:10 seed meal:water ratio (by mass) in 2.0 mL microcentrifuge tubes. Centrifuging and assaying of supernatant were conducted as described above for seedlings. Two seed meal types were tested—Sinapis alba (white mustard) and Brassica juncea (Indian mustard)—both of which are used in commercial biofumigation.
Biofumigated soil was collected from a field study in Hermiston, Oregon. The soils were managed in a 3-yr rotation with a Brassica cover crop mix (B. juncea Caliente 199 and Caliente Rojo; allyl ITC). The Brassica cover crop was tilled into the soil the day prior to sampling and the soils were stored frozen until analysis. […] Frozen soils were thawed and subsamples were homogenized (1600 MiniG homogenizer, 1500 RPM, 7 min), and rotated at room temperature for 45 min to allow time for glucosinolate hydrolysis. The sample was centrifuged for 5 min at 4,000×g and 100 μL extract was used in the basic microplate assay.
For analysis of seed meal amended soil, B. napus and S. alba seed meals were each added to a moist silt loam soils at 0.3% and 3% weight/dry weight. The soil/seed meals were mixed, transferred to small zippered bags and stored in gas-impermeable bags at room temperature. Soil amended with wheat straw and unamended soil were included as ITC-free controls.

Data set [3] relates to P. fluorescens SBW25 expressing the luxCDABE operon under control of the saxA promoter.
Source text: The plasmid vector pUC18T-Tn7T-lux-Gm (Damron et al., Appl. Environ. Microbiol. (2013) 79(13): 4149-4153), which contains Tn7 sites for integration into the P. fluorescens genome, a luxCDABE operon responsible for bioluminescence, and a gentamicin resistance marker. This plasmid also contained a pl promoter, an unregulated promoter upstream of the luxCDABE operon, which was removed and replaced with the desired promoter.
The saxA promoter was PCR amplified from Pseudomonas cannabina and cloned upstream of the luxCDABE gene operon. […] The resulting plasmid containing the luxCDABE operon under control of the saxA promoter was termed pHT #3. This plasmid was transformed into P. fluorescens SBW25, via electroporation and selected for gentamicin resistance.
as §1

Turning to `Oc1ccc(CN=C=S)cc1` [4-hydroxybenzyl ITC], the half-life in data set [1] is on record as 6 min. Further, the “responsiveness of the biosensor to the compound” value (“responsiveness of the biosensor” for short) in data set [2] is “did not respond”.
As for `CNC(=S)S` [Metam-sodium], in data set [2], the “responsiveness of the biosensor” value was “responsive”.
Same read-out and setting: the same measure for `N#C[S-].[K+]` [potassium thiocyanate]: “did not respond”.
Regarding `C[S+]([O-])CCCCN=C=S` (centres unmarked) [sulforaphane], in data set [2], the “time of initial peak luminescence” value fell in the range of 4 to 4.5 h and the “responsiveness of the biosensor” value is reported as “responsive”. Moreover, the “response of luminescence to the amount of ITC” value in data set [2] (0, 5, 10, 25, 50, 75, 100 μM) is given as “dose-dependent response”. Further, in data set [2] (100 μM dose), the “increase in AUC compared to the luxCDABE biosensor” value was 2 fold and the “increase in the maximum RLU compared to the luxCDABE biosensor” value turned out to be 7.7 fold. Moreover, the “concentrations detected (limits of detection)” value in data set [2] (low-dose range 0-20 μM) was 1 to 2 µM. Further, in data set [3] (0, 25, 50, 75, 100 μM), the “response of luminescence to the amount of ITC” value is given as “dose dependent response”. Moreover, in data set [3] (100 μM of ITC), the “area under the curve (AUC) value of luminescence” value is 1.5×10^7 and the peak luminescence result is on record as “approximately 700 relative light units (RLUs)”. The “time of peak luminescence after inoculation” value in data set [3] (regardless of the concentration, 0-100 μM) lay within 8 to 9 h.

What is called half-life is the time in which the quantity being followed falls by half.

The values are drawn from patent US12117402B2, “Bioluminescent sensor for isothiocyanates” (The United States of America, as represented by the …, priority 2021, dated 2024).
